From patent publication EP1994938A1, “New lipoglycodepsipeptide compositions” (priority 2007, dated 2008)

Experiments:
[1] = fat emulsion formulation with an oil phase of 8%; cited from earlier work
[2] = test system: Enterococcus faecalis ATCC 29212; test: Broth microdilution MIC (CLSI), Ca2+ adjusted Mueller Hinton broth with 4% human serum albumin; assay type: cell-based
Description: (§1) Herein, the minimum inhibitory concentration for the growth inhibition was determined by cultivation of the bacteria in Ca^2+ adjusted Mueller Hinton broth (broth microdilution method) according to the CLSI (previously NCCLS) rules (National Committee for Clinical Laboratory Standards. 2003. Methods for dilution antimicrobial susceptibility tests for bacteria that grow aerobically; approved standard - 6th ed. Document M7-A6. Clinical and Laboratory Standards Institute, Wayne, PA, USA). […] The Gram-positive strains tested for the cultivation methods were: • Staphylococcus aureus ATCC 29213 • Enterococcus faecalis ATCC 29212
(§2) The following inocula were incubated: Table 3

[3] = test system: Staphylococcus aureus ATCC 29213; test: as above; assay type: cell-based
Description: as §1, §2

[4] = test system: Streptococcus spp., Staphylococcus spp. and Enterococcus spp.; details: including antibiotic resistant strains (VRE, MRSA); cited from earlier work

ramoplanin
effectiveness in septicaemia mouse models [1]: effective | Antibiotic activity (MIC) ([2]; Ramoplanin : SBE-β-CD 1:0): 0.5 µg/mL | Antibiotic activity (MIC) ([2]; Ramoplanin : SBE-β-CD 1:2): 0.5 µg/mL | Antibiotic activity (MIC) ([2]; Ramoplanin : SBE-β-CD 1:10): 0.5 µg/mL | Antibiotic activity (MIC) ([3]; Ramoplanin : SBE-β-CD 1:0): 0.5 µg/mL | Antibiotic activity (MIC) ([3]; Ramoplanin : SBE-β-CD 1:2): 0.5 µg/mL | Antibiotic activity (MIC) ([3]; Ramoplanin : SBE-β-CD 1:10): 0.5 µg/mL | general MICs (Minimal Inhibition Concentrations) [4]: below 1 µg/ml
